Assay results from patent publication US7982049B2, “α-form or β-form crystal of acetanilide derivative” (Astellas Pharma Inc., priority 2001, dated 2011).
“Also recorded” adds a separate entry of the source. Counter-ions that a name gives are not always drawn.

Key:
[1] = Hygroscopicity test (VTI SGA-100); format: physicochemical; conditions: for hygroscopicity (in words): 5 to 95% of relative humidity; for relative humidity from which an increase in the weight is observed: measurement interval 5% of relative humidity; for stability of the crystal (in words): judged with the hygroscopicity result
Description: The hygroscopicity was measured using VTI SGA-100 under the following conditions. Temperature: 25° C., measurement range: from 5 to 95% of relative humidity, measurement interval: 5% of relative humidity.

[2] = Solubility in recrystallization solvent; format: physicochemical; conditions: 37% to 50% ethanol aqueous solution, as compared with the α-form crystal
Male kk mice = test: Hypoglycemic test in kk mice (insulin resistance model: obesity and hyperglycemia); format: in vivo; conditions: oral, once daily for 7 days, blood glucose 15 to 18 hours after final administration, n=6
Description: Hypoglycemic Test in kk Mice (Insulin Resistance Model: Obesity and Hyperglycemia) Male kk mice (blood glucose level: 200 mg/dL or more) were measured for blood glucose level under feeding and then randomly classified into groups. The drug to be tested was compulsorily orally administered once daily for 7 days, and the blood glucose level after 15 to 18 hours from the final administration was compared with that before the administration (n=6). The blood was collected from a tail vein of the mouse using a glass capillary (previously treated with heparin), a protein was removed therefrom, and the amount of glucose in the supernatant (mg/dL) was measured by colorimetric determination by means of the glucose oxidase method. Further, a dose by which the blood glucose level was reduced by 30% as compared with that before the administration of the drug to be tested was expressed as an ED30 value.

[3] = 25° C., listed as (R)-2-(2-aminothiazol-1-4-yl)-4′-[2-[(2-hydroxy-2-phenylethyl)amino]ethyl]-aceta, dihydrochloride

SMILES | hygroscopicity (in words) ([1]; 25° C., dihydrochloride) | hygroscopicity (in words) [1, 3] | hygroscopicity (in words) ([1]; 25° C., listed as (R)-2-(2-aminothiazol-4-yl)-4′-[2-[(2-hydroxy-2-phenylethyl)amino]ethyl]-acetani, dihydrochloride) | hygroscopicity (in words) ([1]; 25° C., listed as dihydrochloride, dihydrochloride) | moisture held ([1]; 25° C., at a relative humidity of 90%) | relative humidity from which an increase in the weight is observed ([1]; 25° C., dihydrochloride) | relative humidity from which an increase in the weight is observed [1, 3] | stability of the crystal (in words) ([1]; dihydrochloride) | stability of the crystal (in words) ([1]; listed as (R)-2-(2-aminothiazol-4-yl)-4′-[2-[(2-hydroxy-2-phenylethyl)amino]ethyl]-acetani, dihydrochloride) | stability of the crystal (in words) ([1]; listed as dihydrochloride, dihydrochloride) | hygroscopicity (in words) ([1]; 25° C.) | relative humidity from which an increase in the weight is observed ([1]; 25° C.) | moisture held ([1]; 25° C., relative humidity not stated for the value (measurement range 5 to 95%)) | solubility in a recrystallization solvent [2] | moisture-holding amount ([1]; 25° C., over the entire range of relative humidity from 5% to 95%) | stability of the crystal (in words) [1] | ED30 value (dose by which the blood glucose level was reduced by 30% as compared with that before the administration) (Male kk mice)
Nc1nc(CC(=O)Nc2ccc(CCNC[C@H](O)c3ccccc3)cc2)cs1 [dihydrochloride crystal, (R)-2-(2-aminothiazol-4-yl)-4′-[2-[(2-hydroxy-2-phenylethyl)amino]ethyl]-acetanilide dihydrochloride, reference compound] | strongly hygroscopic | strong hygroscopicity | strong hygroscopicity | strong hygroscopicity | about 14% | 80% | about 80% | unstable | unstable | unstable |  |  |  |  |  |  | 
Nc1nc(CC(=O)Nc2ccc(CCNC[C@H](O)c3ccccc3)cc2)cs1 [β-form crystal, (R)-2-(2-aminothiazol-4-yl)-4′-[2-[(2-hydroxy-2-phenylethyl)amino]ethyl]acetanilide] |  |  |  |  |  |  |  |  |  |  | weak hygroscopicity | about 20% | about 3% | high solubility |  |  | 
Nc1nc(CC(=O)Nc2ccc(CCNC[C@H](O)c3ccccc3)cc2)cs1 [α-form crystal, (R)-2-(2-aminothiazol-4-yl)-4′-[2-[(2-hydroxy-2-phenylethyl)amino]ethyl]acetanilide] |  |  |  |  |  |  |  |  |  |  | not exhibiting hygroscopicity; also recorded: does not exhibit hygroscopicity; also recorded: did not exhibit hygroscopicity |  |  |  | not more than 0.2% | stable; also recorded: excellent in stability | not more than 3.5 mg/kg/day
